# Source: the supplement of paper PMC10307832
# What was measured:
# Test in all cases: relative viability (nuclei count vs DMSO), 5 days (fraction); higher = more cells survive
# Shikonin + Linsitinib = compound: CC(C)=CC[C@@H](O)C1=CC(=O)c2c(O)ccc(O)c2C1=O [Shikonin] + C[C@]1(O)C[C@@H](c2nc(-c3ccc4ccc(-c5ccccc5)nc4c3)c3c(N)nccn32)C1 [Linsitinib] (partner 1 µM)
# Summary of the method: (§1)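 One day after seeding in 1536-well plates, lung cancer cell lines were dosed by pin tool. Dosing was either single-drug or a fixed anchor-drug dose plus five library-drug doses (not always all listed) in √10 steps. After 5 days, nuclei were stained in one fix-and-stain step and counted on 4× images, and relative viability is the nuclei count of treated wells over that of vehicle wells, given as the median of duplicate plates.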
# Shikonin + Vorinostat = compound: CC(C)=CC[C@@H](O)C1=CC(=O)c2c(O)ccc(O)c2C1=O [Shikonin] + O=C(CCCCCCC(=O)Nc1ccccc1)NO [Vorinostat] (partner 1 µM)
# Summary of the method: as §1
# [1] = compound: CC(C)N(CCCNC(=O)Nc1ccc(C(C)(C)C)cc1)C[C@H]1O[C@@H](n2ccc3c(N)ncnc32)[C@H](O)[C@@H]1O + Cc1nc(NC(=O)N2CCC[C@H]2C(N)=O)sc1-c1ccnc(C(C)(C)C(F)(F)F)c1 [Alpelisib] (partner 2 µM)
# Summary of the method: as §1
# Shikonin + Phenformin = compound: CC(C)=CC[C@@H](O)C1=CC(=O)c2c(O)ccc(O)c2C1=O [Shikonin] + N=C(N)NC(=N)NCCc1ccccc1 [Phenformin] (partner 250 µM)
# Summary of the method: as §1
cell line,measurement,setting,value
UMC-11,relative viability,Shikonin + Linsitinib; first compound 0.01 µM,1.02
same,relative viability,Shikonin + Linsitinib; first compound 0.1 µM,1.19
same,relative viability,Shikonin + Linsitinib; first compound 0.3162 µM,1.1
same,relative viability,Shikonin + Linsitinib; first compound 1 µM,1.13
same,relative viability,Shikonin + Vorinostat; first compound 0.01 µM,0.322
same,relative viability,Shikonin + Vorinostat; first compound 0.1 µM,0.34
same,relative viability,Shikonin + Vorinostat; first compound 0.3162 µM,0.415
same,relative viability,Shikonin + Vorinostat; first compound 1 µM,0.396
same,relative viability,[1]; first compound 0.08 µM,0.957
same,relative viability,[1]; first compound 0.253 µM,0.891
same,relative viability,[1]; first compound 0.8 µM,1.09
same,relative viability,[1]; first compound 2.53 µM,0.958
same,relative viability,[1]; first compound 8 µM,0.964
same,relative viability,Shikonin + Phenformin; first compound 0.01 µM,0.337
same,relative viability,Shikonin + Phenformin; first compound 0.1 µM,0.329
same,relative viability,Shikonin + Phenformin; first compound 0.3162 µM,0.348
same,relative viability,Shikonin + Phenformin; first compound 1 µM,0.331
